Laboratory results as given in patent publication US8933066B2, “Compounds for the treatment of hepatitis C” (priority 2011, dated 2015).
Where two headings read alike, the source gives them in different places.

Test system: HCV pseudoparticles (genotype 1a HCV E1 and E2 envelope, H77C isolate)
Assay: HCV pseudoparticle infection assay (luciferase reporter, entry into Huh7 cells)
Format: cell-based
Conditions: Hepatitis C virus, Huh-7, 48 h
[1] = read-out: Activity Range (EC50)

SMILES | EC50 [1] | EC50
FC(F)(F)COc1nc2nc(n1)Nc1cnn(c1)CCOCCOCCOc1ccc(cc1)CN2 [Example 2002] | 0.1 to 500 nM | 
CC(C)(C)NC(=O)N1CCCOc2ccc(cc2)CNc2nc(nc(OCC(F)(F)F)n2)Nc2cnn(c2)CC1 [Example 2007] | 0.1 to 500 nM | 105 nM
FC(F)(F)COc1nc2nc(n1)Nc1cnn(c1)CCCCCCOc1ccc(cc1)CN2 [Example 3001] | 0.1 to 500 nM | 
FC(F)(F)COc1nc2nc(n1)Nc1cnn(c1)CCNCCCOc1ccc(cc1)CN2 [Example 2006] | 0.1 to 500 nM | 
